Source: patent US20240043427A1 (Gilead Sciences, Inc., priority 2020, published 2024)

Target: CD73 (Homo sapiens (Human), UniProt P21589)
Type: biochemical
Conditions: 1 mM NaH2PO4 in enzyme buffer, CD73 0.3 nM, AMP 15 uM

Sequence of CD73 (P21589 27-574): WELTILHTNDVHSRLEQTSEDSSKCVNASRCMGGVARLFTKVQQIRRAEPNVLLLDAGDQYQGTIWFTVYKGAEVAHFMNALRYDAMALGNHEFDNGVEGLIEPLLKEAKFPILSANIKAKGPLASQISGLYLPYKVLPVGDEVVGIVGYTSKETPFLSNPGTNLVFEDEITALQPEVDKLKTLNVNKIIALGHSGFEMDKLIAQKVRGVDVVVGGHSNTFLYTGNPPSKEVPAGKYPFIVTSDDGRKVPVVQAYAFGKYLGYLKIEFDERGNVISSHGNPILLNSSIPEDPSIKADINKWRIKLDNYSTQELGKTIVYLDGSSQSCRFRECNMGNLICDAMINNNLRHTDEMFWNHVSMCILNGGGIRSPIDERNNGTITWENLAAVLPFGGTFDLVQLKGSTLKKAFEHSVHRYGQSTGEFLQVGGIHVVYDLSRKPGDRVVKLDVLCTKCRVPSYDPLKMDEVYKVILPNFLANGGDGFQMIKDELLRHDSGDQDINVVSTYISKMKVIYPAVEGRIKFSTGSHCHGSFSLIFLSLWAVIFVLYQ

| Compound | IC50 |
| --- | --- |
| O=c1[nH]cc(-c2cc([C@H]3C[C@@H]3c3ccc4ncsc4c3)c3nccn3n2)c(=O)[nH]1 (racemic) [Example 276, 5-(8-((1S,2S)-2-(benzo[d]thiazol-6-yl)cyclopropyl)imidazo[1,2-b]pyridazin-6-yl)pyrimidine-2,4(1H,3H)-dione] | 0.91 nM |
| O=c1[nH]cc(-c2cc([C@H]3C[C@@H]3c3ccc4c(c3)OC(F)(F)O4)c3ncc(F)n3n2)c(=O)[nH]1 (racemic) [Example 278, 5-(8-((1S,2S)-2-(2,2-difluorobenzo[d][1,3]dioxol-5-yl)cyclopropyl)-3-fluoroimidazo[1,2-b]pyridazin-6-yl)pyrimidine-2,4(1H,3H)-dione] | 3.69 nM |
| O=c1[nH]cc(-c2cc([C@H]3C[C@@H]3c3ccc(OC(F)(F)F)cc3F)c3nccn3n2)c(=O)[nH]1 (racemic) [Example 280, 5-(8-((1S,2S)-2-(2-fluoro-4-(trifluoromethoxy)phenyl)cyclopropyl)imidazo[1,2-b]pyridazin-6-yl)pyrimidine-2,4(1H,3H)-dione] | 5.97 nM |
| COC(=O)c1ccc([C@H]2C[C@@H]2c2cc(-c3c[nH]c(=O)[nH]c3=O)nn3ccnc23)cc1 (racemic) [Example 281, methyl 4-((1S,2S)-2-(6-(2,4-dioxo-1,2,3,4-tetrahydropyrimidin-5-yl)imidazo[1,2-b]pyridazin-8-yl)cyclopropyl)benzoate] | 1.54 nM |
| COC(=O)c1cccc([C@H]2C[C@@H]2c2cc(-c3c[nH]c(=O)[nH]c3=O)nn3ccnc23)c1 (racemic) [Example 282, methyl 3-((1S,2S)-2-(6-(2,4-dioxo-1,2,3,4-tetrahydropyrimidin-5-yl)imidazo[1,2-b]pyridazin-8-yl)cyclopropyl)benzoate] | 1.81 nM |
| NC(=O)c1cccc([C@H]2C[C@@H]2c2cc(-c3c[nH]c(=O)[nH]c3=O)nn3ccnc23)c1 (racemic) [Example 284, 3-((1S,2S)-2-(6-(2,4-dioxo-1,2,3,4-tetrahydropyrimidin-5-yl)imidazo[1,2-b]pyridazin-8-yl)cyclopropyl)benzamide] | 1.07 nM |
| CNC(=O)c1ccc([C@H]2C[C@@H]2c2cc(-c3c[nH]c(=O)[nH]c3=O)nn3ccnc23)cc1 (racemic) [Example 285, 4-((1S,2S)-2-(6-(2,4-dioxo-1,2,3,4-tetrahydropyrimidin-5-yl)imidazo[1,2-b]pyridazin-8-yl)cyclopropyl)-N-methylbenzamide] | 1.42 nM |
| CNC(=O)c1cccc([C@H]2C[C@@H]2c2cc(-c3c[nH]c(=O)[nH]c3=O)nn3ccnc23)c1 (racemic) [Example 286, 3-((1S,2S)-2-(6-(2,4-dioxo-1,2,3,4-tetrahydropyrimidin-5-yl)imidazo[1,2-b]pyridazin-8-yl)cyclopropyl)-N-methylbenzamide] | 1.19 nM |
| CN(C)C(=O)c1cccc([C@H]2C[C@@H]2c2cc(-c3c[nH]c(=O)[nH]c3=O)nn3ccnc23)c1 (racemic) [Example 287, 3-((1S,2S)-2-(6-(2,4-dioxo-1,2,3,4-tetrahydropyrimidin-5-yl)imidazo[1,2-b]pyridazin-8-yl)cyclopropyl)-N,N-dimethylbenzamide] | 3.9 nM |
| CN(C)C(=O)c1ccc([C@H]2C[C@@H]2c2cc(-c3c[nH]c(=O)[nH]c3=O)nn3ccnc23)cc1 (racemic) [Example 288, 4-((1S,2S)-2-(6-(2,4-dioxo-1,2,3,4-tetrahydropyrimidin-5-yl)imidazo[1,2-b]pyridazin-8-yl)cyclopropyl)-N,N-dimethylbenzamide] | 6.86 nM |
| O=C(c1ccc([C@H]2C[C@@H]2c2cc(-c3c[nH]c(=O)[nH]c3=O)nn3ccnc23)cc1)N1CCC1 (racemic) [Example 289, 5-(8-((1S,2S)-2-(4-(azetidine-1-carbonyl)phenyl)cyclopropyl)imidazo[1,2-b]pyridazin-6-yl)pyrimidine-2,4(1H,3H)-dione] | 2.27 nM |
| CC1CN(C(=O)c2ccc([C@H]3C[C@@H]3c3cc(-c4c[nH]c(=O)[nH]c4=O)nn4ccnc34)cc2)C1 (racemic) [Example 290, 5-(8-((1S,2S)-2-(4-(3-methylazetidine-1-carbonyl)phenyl)cyclopropyl)imidazo[1,2-b]pyridazin-6-yl)pyrimidine-2,4(1H,3H)-dione] | 3.46 nM |
| O=C(c1ccc([C@H]2C[C@@H]2c2cc(-c3c[nH]c(=O)[nH]c3=O)nn3ccnc23)cc1)N1CC(C(F)(F)F)C1 (racemic) [Example 291, 5-(8-((1S,2S)-2-(4-(3-(trifluoromethyl)azetidine-1-carbonyl)phenyl)cyclopropyl)imidazo[1,2-b]pyridazin-6-yl)pyrimidine-2,4(1H,3H)-dione] | 3.25 nM |
| O=C(c1ccc([C@H]2C[C@@H]2c2cc(-c3c[nH]c(=O)[nH]c3=O)nn3ccnc23)cc1)N1CC(F)(F)C1 (racemic) [Example 292, 5-(8-((1S,2S)-2-(4-(3,3-difluoroazetidine-1-carbonyl)phenyl)cyclopropyl)imidazo[1,2-b]pyridazin-6-yl)pyrimidine-2,4(1H,3H)-dione] | 2.08 nM |
| CC1(C)CN(C(=O)c2ccc([C@H]3C[C@@H]3c3cc(-c4c[nH]c(=O)[nH]c4=O)nn4ccnc34)cc2)C1 (racemic) [Example 293, 5-(8-((1S,2S)-2-(4-(3,3-dimethylazetidine-1-carbonyl)phenyl)cyclopropyl)imidazo[1,2-b]pyridazin-6-yl)pyrimidine-2,4(1H,3H)-dione] | 4.75 nM |
| O=C(c1cccc([C@H]2C[C@@H]2c2cc(-c3c[nH]c(=O)[nH]c3=O)nn3ccnc23)c1)N1CCC1 (racemic) [Example 294, 5-(8-((1S,2S)-2-(3-(azetidine-1-carbonyl)phenyl)cyclopropyl)imidazo[1,2-b]pyridazin-6-yl)pyrimidine-2,4(1H,3H)-dione] | 1.02 nM |
| CC1CN(C(=O)c2cccc([C@H]3C[C@@H]3c3cc(-c4c[nH]c(=O)[nH]c4=O)nn4ccnc34)c2)C1 (racemic) [Example 295, 5-(8-((1S,2S)-2-(3-(3-methylazetidine-1-carbonyl)phenyl)cyclopropyl)imidazo[1,2-b]pyridazin-6-yl)pyrimidine-2,4(1H,3H)-dione] | 1.92 nM |
| O=C(c1cccc([C@H]2C[C@@H]2c2cc(-c3c[nH]c(=O)[nH]c3=O)nn3ccnc23)c1)N1CC(C(F)(F)F)C1 (racemic) [Example 296, 5-(8-((1S,2S)-2-(3-(3-(trifluoromethyl)azetidine-1-carbonyl)phenyl)cyclopropyl)imidazo[1,2-b]pyridazin-6-yl)pyrimidine-2,4(1H,3H)-dione] | 2.14 nM |
| O=C(c1cccc([C@H]2C[C@@H]2c2cc(-c3c[nH]c(=O)[nH]c3=O)nn3ccnc23)c1)N1CC(F)(F)C1 (racemic) [Example 297, 5-(8-((1S,2S)-2-(3-(3,3-difluoroazetidine-1-carbonyl)phenyl)cyclopropyl)imidazo[1,2-b]pyridazin-6-yl)pyrimidine-2,4(1H,3H)-dione] | 1.51 nM |
| CC1(C)CN(C(=O)c2cccc([C@H]3C[C@@H]3c3cc(-c4c[nH]c(=O)[nH]c4=O)nn4ccnc34)c2)C1 (racemic) [Example 298, 5-(8-((1S,2S)-2-(3-(3,3-dimethylazetidine-1-carbonyl)phenyl)cyclopropyl)imidazo[1,2-b]pyridazin-6-yl)pyrimidine-2,4(1H,3H)-dione] | 3.78 nM |
| O=C(c1ccc([C@H]2C[C@@H]2c2cc(-c3c[nH]c(=O)[nH]c3=O)nn3ccnc23)cc1)N1C[C@@H](F)[C@H](F)C1 (racemic) [Example 299, 5-(8-((1S,2S)-2-(4-((3R,4R)-3,4-difluoropyrrolidine-1-carbonyl)phenyl)cyclopropyl)imidazo[1,2-b]pyridazin-6-yl)pyrimidine-2,4(1H,3H)-dione] | 7.85 nM |
| O=C(c1cccc([C@H]2C[C@@H]2c2cc(-c3c[nH]c(=O)[nH]c3=O)nn3ccnc23)c1)N1C[C@@H](F)[C@H](F)C1 (racemic) [Example 300, 5-(8-((1S,2S)-2-(3-((3R,4R)-3,4-difluoropyrrolidine-1-carbonyl)phenyl)cyclopropyl)imidazo[1,2-b]pyridazin-6-yl)pyrimidine-2,4(1H,3H)-dione] | 1.8 nM |
| O=C(c1ccc([C@H]2C[C@@H]2c2cc(-c3c[nH]c(=O)[nH]c3=O)nn3ccnc23)cc1)N1C[C@@H](F)[C@@H](F)C1 (racemic) [Example 301, 5-(8-((1S,2S)-2-(4-((3S,4R)-3,4-difluoropyrrolidine-1-carbonyl)phenyl)cyclopropyl)imidazo[1,2-b]pyridazin-6-yl)pyrimidine-2,4(1H,3H)-dione] | 4.45 nM |
| O=C(c1cccc([C@H]2C[C@@H]2c2cc(-c3c[nH]c(=O)[nH]c3=O)nn3ccnc23)c1)N1C[C@@H](F)[C@@H](F)C1 (racemic) [Example 302, 5-(8-((1S,2S)-2-(3-((3S,4R)-3,4-difluoropyrrolidine-1-carbonyl)phenyl)cyclopropyl)imidazo[1,2-b]pyridazin-6-yl)pyrimidine-2,4(1H,3H)-dione] | 3.08 nM |
| O=C(c1ccc([C@H]2C[C@@H]2c2cc(-c3c[nH]c(=O)[nH]c3=O)nn3ccnc23)cc1)N1CC(F)(F)C(F)(F)C1 (racemic) [Example 303, 5-(8-((1S,2S)-2-(4-(3,3,4,4-tetrafluoropyrrolidine-1-carbonyl)phenyl)cyclopropyl)imidazo[1,2-b]pyridazin-6-yl)pyrimidine-2,4(1H,3H)-dione] | 7.74 nM |
| O=C(c1cccc([C@H]2C[C@@H]2c2cc(-c3c[nH]c(=O)[nH]c3=O)nn3ccnc23)c1)N1CC(F)(F)C(F)(F)C1 (racemic) [Example 304, 5-(8-((1S,2S)-2-(3-(3,3,4,4-tetrafluoropyrrolidine-1-carbonyl)phenyl)cyclopropyl)imidazo[1,2-b]pyridazin-6-yl)pyrimidine-2,4(1H,3H)-dione] | 3.59 nM |
| O=C(c1ccc([C@H]2C[C@@H]2c2cc(-c3c[nH]c(=O)[nH]c3=O)nn3ccnc23)cc1)N1CCC(F)(F)C1 (racemic) [Example 305, 5-(8-((1S,2S)-2-(4-(3,3-difluoropyrrolidine-1-carbonyl)phenyl)cyclopropyl)imidazo[1,2-b]pyridazin-6-yl)pyrimidine-2,4(1H,3H)-dione] | 4.81 nM |
